Measurements published in US20130197205A1, “CHITOSAN COVALENTLY LINKED WITH SMALL MOLECULE INTEGRIN ANTAGONIST FOR TARGETED DELIVERY” (Hoffmann-La Roche Inc., priority 2012, published 2013).
Read-outs that look alike come from different tables or passages of the source.

Target: T1, αvβ3 (Homo sapiens, UniProt P05106+P06756, DEL719-788)
T1 construct: purchased R & D 3050-AV
Test: Human αVβ3 solid phase assay (fibrinogen binding)
Settings: αvβ3-coated plates, fibrinogen as ligand
Experimental: Buffer used was Buffer A: 20 mM Tris, 150 mM NaCl, 1 mM CaCl2, 1 mM MgCl2, pH 7.4. […] After blocking, plates were washed 5 times with 200 uL of Buffer B (Buffer A+1 mM MnCl2). […] Plates were shaken for 2 minutes, and then incubated for 2 hours for 37° C. […] After the addition of 1st antibody and after the addition of 2nd antibody, plates were shaken for 2 minutes and incubated for 60 minutes at 37° C., and then washed 5 times with 200 uL of Buffer B correspondingly. […] Plates were shaken at RT for 5-8 min, and the development of a green color was gradually showing. After being added 100 uL/well Stop Buffer (1.0 M Phosphoric Acid ([…])), plates were read on Envision at Absorbance mode 450 nm.

T1 sequence (P06756 31-992 limits assumed, stated change not applied): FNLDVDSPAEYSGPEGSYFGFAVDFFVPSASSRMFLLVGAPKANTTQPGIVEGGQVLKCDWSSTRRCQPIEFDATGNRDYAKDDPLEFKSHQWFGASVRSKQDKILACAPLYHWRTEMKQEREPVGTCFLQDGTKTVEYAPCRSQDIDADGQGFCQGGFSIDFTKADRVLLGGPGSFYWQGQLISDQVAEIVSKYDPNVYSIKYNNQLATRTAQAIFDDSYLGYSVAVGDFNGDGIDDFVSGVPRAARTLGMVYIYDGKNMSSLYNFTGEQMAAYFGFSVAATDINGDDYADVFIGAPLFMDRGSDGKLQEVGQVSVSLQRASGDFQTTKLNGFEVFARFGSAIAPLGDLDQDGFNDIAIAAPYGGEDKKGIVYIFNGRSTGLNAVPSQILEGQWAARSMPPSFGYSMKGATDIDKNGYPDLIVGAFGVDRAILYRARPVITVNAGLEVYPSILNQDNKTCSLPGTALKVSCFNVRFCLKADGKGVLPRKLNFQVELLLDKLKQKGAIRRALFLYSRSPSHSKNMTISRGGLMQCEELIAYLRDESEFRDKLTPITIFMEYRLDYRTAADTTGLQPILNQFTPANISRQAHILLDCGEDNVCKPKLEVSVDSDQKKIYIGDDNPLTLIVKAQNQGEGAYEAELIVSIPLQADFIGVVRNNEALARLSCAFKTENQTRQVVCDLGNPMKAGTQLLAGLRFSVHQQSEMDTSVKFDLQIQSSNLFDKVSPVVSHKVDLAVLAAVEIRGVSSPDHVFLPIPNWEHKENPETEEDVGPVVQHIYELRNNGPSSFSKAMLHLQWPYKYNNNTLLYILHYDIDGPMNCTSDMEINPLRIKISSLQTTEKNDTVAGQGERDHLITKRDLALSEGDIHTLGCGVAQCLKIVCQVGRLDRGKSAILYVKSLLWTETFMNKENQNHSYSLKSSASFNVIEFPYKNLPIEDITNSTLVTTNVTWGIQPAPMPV
T1 sequence (P05106 27-718 limits assumed, stated change not applied): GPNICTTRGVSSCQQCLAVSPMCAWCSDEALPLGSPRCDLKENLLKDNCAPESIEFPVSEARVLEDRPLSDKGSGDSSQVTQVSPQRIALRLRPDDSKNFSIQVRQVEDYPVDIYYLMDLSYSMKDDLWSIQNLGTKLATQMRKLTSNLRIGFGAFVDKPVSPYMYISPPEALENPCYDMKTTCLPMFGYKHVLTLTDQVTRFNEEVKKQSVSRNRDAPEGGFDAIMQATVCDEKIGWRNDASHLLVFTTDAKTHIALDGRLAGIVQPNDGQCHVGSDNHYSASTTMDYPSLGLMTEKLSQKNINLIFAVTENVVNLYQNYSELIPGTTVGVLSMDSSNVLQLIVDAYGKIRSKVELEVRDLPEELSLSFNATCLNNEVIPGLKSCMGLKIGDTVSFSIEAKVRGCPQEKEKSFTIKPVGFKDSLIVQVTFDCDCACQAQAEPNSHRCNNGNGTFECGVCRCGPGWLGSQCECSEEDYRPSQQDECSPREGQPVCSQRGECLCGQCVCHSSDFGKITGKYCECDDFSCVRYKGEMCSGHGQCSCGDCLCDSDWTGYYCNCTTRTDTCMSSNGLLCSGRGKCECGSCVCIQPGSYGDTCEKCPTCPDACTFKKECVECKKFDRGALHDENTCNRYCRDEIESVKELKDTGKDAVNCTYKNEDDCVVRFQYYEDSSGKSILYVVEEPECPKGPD

- IC50 (read-out: Binding IC50): 2 nM
- IC50 (read-out: IC50 of control compound): ~2 nM
Compound: COc1ccc(NC(=O)[C@H](CC(=O)O)NC(=O)CNC(=O)c2cccc(N=C(N)N)c2)cc1 [compound 28]
